Test results taken from BindingDB's records for doi:10.1016/s0960-894x(01)00126-3 (Technische Universität Graz, 2001).
pKi: −log10 of the molar value.

Experiment: Tested for inhibitory activity against Beta-glucosidase from Agrobacterium species

pKi | SMILES
8.92 | CCN(CC)c1ccc2cc(C(=O)NC[C@H]3N[C@H](CO)[C@H](O)[C@@H]3O)c(=O)oc2c1 [7-Diethylamino-2-oxo-2H-chromene-3-carboxylic acid ((R)-(3R,5S)-3,4-dihydroxy-5-hydroxymethyl-pyrrolidin-2-ylmethyl)-amide]
7.00 | CCCCCCCCCCCC(=O)NC[C@H]1N[C@H](CO)[C@H](O)[C@@H]1O [Dodecanoic acid ((3S,4S,5R)-3,4-dihydroxy-5-hydroxymethyl-pyrrolidin-2-ylmethyl)-amide]
6.26 | O=C(NC[C@H]1N[C@H](CO)[C@H](O)[C@@H]1O)c1cccc2ccccc12 [Naphthalene-1-carboxylic acid ((3S,4S,5R)-3,4-dihydroxy-5-hydroxymethyl-pyrrolidin-2-ylmethyl)-amide]
6.82 | O=C(CCc1ccccc1)NC[C@@H]1N[C@H](CO)[C@H](O)[C@@H]1O [N-((3S,4S,5R)-3,4-Dihydroxy-5-hydroxymethyl-pyrrolidin-2-ylmethyl)-3-phenyl-propionamide]
